Tests used:
[1] = target: Serine/threonine-protein kinase mTOR (Homo sapiens, UniProt P42345); assay: Inhibition of mTOR (unknown origin) assessed as inhibition of 4EBP-1 phosphorylation preincubated for 15 mins before substrate addition by TR-FRET assay
[2] = Antiproliferative activity against human U87MG cells after 4 days by CellTiter-Glo assay; settings: U-87 MG, 96 h
[3] = Antiproliferative activity against human SKOV3 cells after 3 days by CellTiter-Glo assay; settings: SK-OV-3, 72 h
[4] = Apparent permeability from basolateral to apical side of human Caco2 cells at 10 uM after 90 mins by LC/MS/MS analysis; format: ADME, cell-based; settings: Caco-2
[5] = Apparent permeability from apical to basolateral side of human Caco2 cells at 10 uM after 90 mins by LC/MS/MS analysis; format: ADME, cell-based; settings: Caco-2
[6] = target: Phosphatidylinositol 4,5-bisphosphate 3-kinase catalytic subunit alpha isoform (Homo sapiens, UniProt P42336); assay: Inhibition of PI3Kalpha (unknown origin) using PIP2/PS as substrate preincubated for 15 mins before substrate addition by luciferase-based luminescence assay
[7] = Efflux ratio of apparent permeability from basolateral to apical side to apical to basolateral of human Caco2 cells; format: ADME, cell-based; settings: Caco-2

Sequence of Phosphatidylinositol 4,5-bisphosphate 3-kinase catalytic subunit alpha isoform (P42336 whole entry, canonical isoform): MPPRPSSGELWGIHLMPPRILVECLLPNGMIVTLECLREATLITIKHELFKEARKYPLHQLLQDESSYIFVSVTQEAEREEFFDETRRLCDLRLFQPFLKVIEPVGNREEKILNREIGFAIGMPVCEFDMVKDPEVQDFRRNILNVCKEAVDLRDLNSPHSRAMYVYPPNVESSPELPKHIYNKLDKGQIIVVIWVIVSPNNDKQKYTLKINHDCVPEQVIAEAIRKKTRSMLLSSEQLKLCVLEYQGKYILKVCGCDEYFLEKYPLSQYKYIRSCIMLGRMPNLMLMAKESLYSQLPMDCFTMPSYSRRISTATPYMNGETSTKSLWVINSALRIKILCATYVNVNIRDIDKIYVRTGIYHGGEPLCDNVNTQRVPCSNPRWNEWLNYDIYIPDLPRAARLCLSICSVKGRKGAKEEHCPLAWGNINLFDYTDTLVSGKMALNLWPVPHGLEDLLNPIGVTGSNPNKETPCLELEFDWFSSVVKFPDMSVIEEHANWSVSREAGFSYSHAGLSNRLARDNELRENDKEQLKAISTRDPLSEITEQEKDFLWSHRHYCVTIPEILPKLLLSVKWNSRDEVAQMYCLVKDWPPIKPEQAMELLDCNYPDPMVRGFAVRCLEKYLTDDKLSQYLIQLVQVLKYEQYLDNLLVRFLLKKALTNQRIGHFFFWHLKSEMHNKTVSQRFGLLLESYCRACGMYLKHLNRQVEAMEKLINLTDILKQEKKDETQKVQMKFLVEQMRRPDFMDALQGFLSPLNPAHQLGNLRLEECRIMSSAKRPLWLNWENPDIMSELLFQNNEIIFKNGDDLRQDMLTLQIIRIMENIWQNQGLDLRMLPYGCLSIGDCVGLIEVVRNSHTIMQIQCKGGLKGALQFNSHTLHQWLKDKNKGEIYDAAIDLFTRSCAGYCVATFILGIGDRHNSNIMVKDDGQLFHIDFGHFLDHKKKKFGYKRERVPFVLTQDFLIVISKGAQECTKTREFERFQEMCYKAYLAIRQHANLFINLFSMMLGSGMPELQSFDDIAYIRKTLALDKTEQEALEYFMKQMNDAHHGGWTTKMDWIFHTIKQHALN

SMILES	IC50 [1]	IC50 [6]	also measured
COc1ncc(-c2cnc3nc(N)nc(C)c3c2)cc1NS(=O)(=O)c1ccc(C#N)cc1	0.0458 µM	0.00282 µM	IC50 [2]: 2.44 µM; IC50 [3]: 9.15 µM; Papp B→A at 1.5 h, 10 µM [4]: 14 ×10⁻⁶ cm/s; Papp A→B at 1.5 h, 10 µM [5]: 1.04 ×10⁻⁶ cm/s; efflux ratio [7]: 13.5
COc1ncc(-c2cnc3nc(N)nc(C)c3c2)cc1NS(=O)(=O)c1ccc(C(F)(F)F)cc1	0.067 µM	0.00841 µM	
COc1ccc(S(=O)(=O)Nc2cc(-c3cnc4nc(N)nc(C)c4c3)cnc2OC)cc1	0.18 µM	0.067 µM	
COc1ncc(-c2cnc3nc(N)nc(C)c3c2)cc1NS(=O)(=O)c1cccs1	0.245 µM	0.0233 µM	
Cc1nc(N)nc2ncc(-c3cnc4[nH]cc(NS(=O)(=O)c5ccc(F)cc5F)c4c3)cc12		0.0765 µM	
Cc1nc(N)nc2ncc(-c3cnc4[nH]nc(NS(=O)(=O)c5ccc(F)cc5F)c4c3)cc12		0.0824 µM	
COc1ncc(-c2cnc3nc(N)nc(C)c3c2)cc1NS(=O)(=O)c1ccccc1	0.0792 µM	0.0631 µM	
COc1ncc(-c2cnc3nc(N)nc(C)c3c2)cc1NC(=O)c1ccc(F)cc1F		> 1 µM	
COc1ncc(-c2cnc3nc(N)nc(C)c3c2)cc1NC(=O)Nc1ccc(F)cc1F		> 1 µM	
COc1ncc(-c2cnc3nc(N)nc(C)c3c2)cn1		0.218 µM	
Cc1nc(N)nc2ncc(-c3cnc4[nH]ccc4c3)cc12		0.038 µM	
COc1ncc(-c2cnc3nc(N)nc(C)c3c2)cc1NS(C)(=O)=O		0.145 µM	
CCCCS(=O)(=O)Nc1cc(-c2cnc3nc(N)nc(C)c3c2)cnc1OC		0.0475 µM	
COc1ncc(-c2cnc3nc(N)nc(C)c3c2)cc1NS(=O)(=O)C1CC1		0.0556 µM	
COc1ccc(-c2cnc3nc(N)nc(C)c3c2)cn1		0.414 µM	
COc1ncc(-c2cnc3nc(N)nc(C)c3c2)cc1F		0.117 µM	
COc1ncc(-c2cnc3nc(N)nc(C)c3c2)cc1N		0.632 µM	
COc1ncc(-c2cnc3nc(N)nc(C)c3c2)cc1NC(=O)C(F)(F)F		> 1 µM	
COc1ncc(-c2cnc3nc(N)nc(C)c3c2)cc1NS(=O)(=O)c1ccc(Cl)s1	0.0376 µM	0.00687 µM	
COc1ncc(-c2cnc3nc(N)nc(C)c3c2)cc1NS(=O)(=O)c1cccnc1	0.111 µM	0.00782 µM	
COc1ccc(-c2cc3c(C)nc(N)nc3n([C@H]3CC[C@H](OCCO)CC3)c2=O)cn1 [PF-04691502]			IC50 [2]: 0.52 µM; IC50 [3]: 0.29 µM; Papp B→A at 1.5 h, 10 µM [4]: 32.5 ×10⁻⁶ cm/s; Papp A→B at 1.5 h, 10 µM [5]: 25.7 ×10⁻⁶ cm/s
